Test results from patent US8796289B2 (AbbVie Inc., priority 2011, dated 2014).
pKi: −log10 of the molar value.

Biological target: GST-tagged-Wee1 kinase (Homo sapiens, UniProt P30291)
Experiment: Wee1 time-resolved fluorescence equilibrium binding assay (displacement of Oregon Green-labeled ATP-competitive kinase probe)
Method: Wee1 kinase was assayed using a time-resolved fluorescence equilibrium binding assay monitoring displacement of a rapidly reversible Oregon Green-labeled ATP-competitive kinase probe (N-(2-(2-(2-(4-(4-(5-chloro-4-(2-(1-hydroxycyclobutyl)thiazol-5-yl)-1H-pyrrolo[2,3-b]pyridin-2-yl)phenyl)piperazin-1-yl)ethoxy)ethoxy)ethyl)-2′,7′-difluoro-3′,6′-dihydroxy-3-oxo-3H-spiro[isobenzofuran-1,9′-xanthene]-5-carboxamide) by competitive Wee1 inhibitors.

Chain of GST-tagged-Wee1 kinase (P30291 whole entry): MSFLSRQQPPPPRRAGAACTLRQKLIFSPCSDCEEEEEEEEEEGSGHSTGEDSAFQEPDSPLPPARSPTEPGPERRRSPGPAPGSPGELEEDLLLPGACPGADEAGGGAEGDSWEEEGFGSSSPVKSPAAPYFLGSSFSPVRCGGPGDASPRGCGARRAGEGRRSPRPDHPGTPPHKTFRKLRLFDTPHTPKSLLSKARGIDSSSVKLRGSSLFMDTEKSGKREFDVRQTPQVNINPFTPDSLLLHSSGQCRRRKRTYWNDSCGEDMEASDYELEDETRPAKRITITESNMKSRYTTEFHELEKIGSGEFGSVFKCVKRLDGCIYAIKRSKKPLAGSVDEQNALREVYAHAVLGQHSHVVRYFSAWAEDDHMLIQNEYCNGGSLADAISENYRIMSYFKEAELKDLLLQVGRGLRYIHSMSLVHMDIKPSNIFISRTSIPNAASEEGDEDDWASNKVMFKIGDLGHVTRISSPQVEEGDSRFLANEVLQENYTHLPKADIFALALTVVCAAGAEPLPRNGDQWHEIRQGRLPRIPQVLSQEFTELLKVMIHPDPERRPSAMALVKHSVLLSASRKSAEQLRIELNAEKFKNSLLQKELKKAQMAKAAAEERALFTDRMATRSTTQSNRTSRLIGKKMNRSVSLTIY

SMILES | pKi
Cc1cccc(Cl)c1-n1nc(C)c2nc(Nc3ccc4c(c3)CNCC4)ncc2c1=O [Example 495, 6-(2-chloro-6-methylphenyl)-8-methyl-2-(1,2,3,4-tetrahydroisoquinolin-7-ylamino)pyrimido[4,5-d]pyridazin-5(6H)-one] | 9.80
Cc1cccc(Cl)c1-n1nc(C)c2nc(Nc3ccc4c(c3)CCNC4)ncc2c1=O [Example 496, 6-(2-chloro-6-methylphenyl)-8-methyl-2-(1,2,3,4-tetrahydroisoquinolin-6-ylamino)pyrimido[4,5-d]pyridazin-5(6H)-one] | 9.47
Cc1cccc(Cl)c1-n1nc(C)c2nc(Nc3ccc4c(c3)CNCC4(C)C)ncc2c1=O [Example 497, 6-(2-chloro-6-methylphenyl)-2-[(4,4-dimethyl-1,2,3,4-tetrahydroisoquinolin-7-yl)amino]-8-methylpyrimido[4,5-d]pyridazin-5(6H)-one] | 9.59
Cc1cccc(Cl)c1-n1nc(C)c2nc(Nc3ccc4c(c3)CN(C)CC4(C)C)ncc2c1=O [Example 498, 6-(2-chloro-6-methylphenyl)-8-methyl-2-[(2,4,4-trimethyl-1,2,3,4-tetrahydroisoquinolin-7-yl)amino]pyrimido[4,5-d]pyridazin-5(6H)-one] | 9.64
Cc1cccc(Cl)c1-n1nc(C)c2nc(Nc3ccc4c(c3)CN(CCO)CC4)ncc2c1=O [Example 499, 6-(2-chloro-6-methylphenyl)-2-{[2-(2-hydroxyethyl)-1,2,3,4-tetrahydroisoquinolin-7-yl]amino}-8-methylpyrimido[4,5-d]pyridazin-5(6H)-one] | 9.68
Cc1cccc(Cl)c1-n1nc(C)c2nc(Nc3ccc(N4CCN(CCCN(C)C)CC4)cc3)ncc2c1=O [Example 500, 6-(2-chloro-6-methylphenyl)-2-[(4-{4-[3-(dimethylamino)propyl]piperazin-1-yl}phenyl)amino]-8-methylpyrimido[4,5-d]pyridazin-5(6H)-one] | 9.29
Cc1cccc(Cl)c1-n1nc(C)c2nc(Nc3ccc(NC4CCN(C)CC4)cc3)ncc2c1=O [Example 501, 6-(2-chloro-6-methylphenyl)-8-methyl-2-({4-[(1-methylpiperidin-4-yl)amino]phenyl}amino)pyrimido[4,5-d]pyridazin-5(6H)-one] | 9.49
Cc1cccc(Cl)c1-n1nc(C)c2nc(Nc3ccc(OC4CCN(C)CC4)cc3)ncc2c1=O [Example 502, 6-(2-chloro-6-methylphenyl)-8-methyl-2-({4-[(1-methylpiperidin-4-yl)oxy]phenyl}amino)pyrimido[4,5-d]pyridazin-5(6H)-one] | 9.44
Cc1nn(-c2c(Cl)cccc2Cl)c(=O)c2cnc(Nc3ccc(OC4CCN(C)CC4)cc3)nc12 [Example 503, 6-(2,6-dichlorophenyl)-8-methyl-2-({4-[(1-methylpiperidin-4-yl)oxy]phenyl}amino)pyrimido[4,5-d]pyridazin-5(6H)-one] | 10.00
Cc1nn(-c2c(Cl)cccc2Cl)c(=O)c2cnc(Nc3cccc(N4CCCCC4)c3)nc12 [Example 504, 6-(2,6-dichlorophenyl)-8-methyl-2-{[3-(piperidin-1-yl)phenyl]amino}pyrimido[4,5-d]pyridazin-5(6H)-one] | 8.43
Cc1nn(-c2c(Cl)cccc2Cl)c(=O)c2cnc(Nc3cccc(N4CCOCC4)c3)nc12 [Example 505, 6-(2,6-dichlorophenyl)-8-methyl-2-{[3-(morpholin-4-yl)phenyl]amino}pyrimido[4,5-d]pyridazin-5(6H)-one] | 8.57
Cc1nn(-c2c(Cl)cccc2Cl)c(=O)c2cnc(Nc3cccc(N4CCNCC4)c3)nc12 [Example 506, 6-(2,6-dichlorophenyl)-8-methyl-2-{[3-(piperazin-1-yl)phenyl]amino}pyrimido[4,5-d]pyridazin-5(6H)-one] | 9.27
Cc1nn(-c2c(Cl)cccc2Cl)c(=O)c2cnc(Nc3cccc(N4CCN(CCCCl)CC4)c3)nc12 [Example 507, 2-({3-[4-(3-chloropropyl)piperazin-1-yl]phenyl}amino)-6-(2,6-dichlorophenyl)-8-methylpyrimido[4,5-d]pyridazin-5(6H)-one] | 8.62
